From patent publication US20030096264A1, “Multi-parameter high throughput screening assays (MPHTS)” (Psychiatric Genomics, Inc., priority 2001, published 2003)

What was measured:
[1] = test system: rat (rattus norvegicus) neuronal cells; test: Microarray expression profile of primary rat cortical neurons incubated with valproate; assay type: cell-based; settings: 0.5 mM valproate, 3 days
From the text: This example describes experiments, which analyzed changes in the expression profile for rat (rattus norvegicus) neuronal cells induced by valproate, a drug used clinically to treat neuropsychiatric disorders such as bipolar disorder. […] Expression profiles for these genes are compared to expression profiles for orthologous genes in human schizophrenia patients.
Primary neuron cells were isolated from E19 rat embryos and cultured as follows. First, the cortex was dissected from each embryo and placed in HBSS solution. The HBSS solution was subsequently removed and replaced with 5 ml papain solution at a concentration of 10 units per ml. The cortex was then incubated in the papain solution for 10 minutes and at 37° C. After incubation, the Papain solution was removed and 10% NuSerum media (Becton Dickinson, Bedford Mass.) was added in its place. The cortex was then centrifuged at 1000 rpm for 10 minutes, after which time the solution was removed and 1 ml of media containing 0.1% DNase was added. Cells were titurated immediately to break up the tissue. The volume of the cell suspensions was brought up to 15 ml and the cells were counted.
Approximately 4×10^6 cells were plated per 10 cm dish, in NeuroBasal A (Invitrogen Corp., Carlsbad Calif.) medium containing B27 and insulin (25 μg/ml). The cell cultures were incubated in a humidified incubator with 5% CO2 and at 37° C. The culture media were changed every 2 days. Cells were incubated in 0.5 mM valproate for 3 days. Control cultures were also prepared and incubated under the same conditions (including the carrier DMSO) but without valproate.
mRNA was extracted from each group of cultures and expression profiles were measured on microarrays according to standard techniques (see the Detailed Description section, infra). Data from duplicate microarrays was statistically evaluated to identify genes that are differentially expressed in the presence of valproate, relative to expression levels in the absence of valproate.
Table 1, below, lists the twelve genes identified in these experiments as being differentially expressed in the presence of valproate, relative to its expression level in the absence of valproate. These genes were identified using a Rat Toxicology array from Incyte (Palo Alto, Calif.). Each gene is listed in Table 1 by its common or popular name, along with the GenBank Accession and Gene Identification (GI) numbers of the rat gene whose expression level was evaluated in these experiments. The “expression ratio” measured for each gene is also specified. Specifically, the expression ratio, Φ, was calculated using the formula: [formula]
where Ev is the expression level measured in cells incubated with valproate and Eo is the expression level in the absence of valproate.

[2] = test system: human neuroblastoma cell line NBFL; test: Microarray expression profile of NBFL cells incubated with valproate; assay type: cell-based; settings: 0.5 mM valproate, 24 h
Description: The additional signature genes described here were identified using a human neuroblastoma cell line that is known in the art as NBFL (see, Symes et al., Proc. Natl. Acad. Sci. U.S.A. 1993, 90(2):572-576). NBFL cell cultures were maintained in DMEM medium supplemented with L-glutmine, antibiotics, 10% fetal bovine serum and 5% horse serum. Before treatment, cells were passaged, allowed to adhere overnight, and the medium was replaced with serum free medium for 24 hours. The cells were then incubated for 24 hours in either the presence or absence of valproate (0.5 mM), and in the absence of serum. mRNA was extracted from each group of cultures and sent to a commercial company for expression profiling by hybridization to microarrays. Data from at least three independent microarray experiments was then statistically evaluated to identify genes that are differentially expressed in the presence of valproate, relative to expression levels in the absence of valproate.
Table 3, below, list each of the genes whose expression level changed in cells exposed to valproate, identified using a UniGem V2 array from Incyte (Palo Alto, Calif.) and also provides the expression ratio ((), defined in Example 1, supra) measured for each gene. Each gene is identified in Table 3 by its common name, as well as by the GenBank Accession and Gene Identification (GI) numbers for its nucleotide sequence. A cDNA sequence for each gene listed in Table 3 is also provided in the accompanying Sequence Listing, and its sequence identifier is specified in Table 3 along with the GenBank Accession number. Table 3 also indicates the Unigene cluster number for each gene from a recent build of the NCBI Unigene database.

CCCC(CCC)C(=O)O [valproate]
expression ratio Φ: myelin-associated glycoprotein (MAG) ([1]; vs no valproate, M22357 SEQ ID NO: 1): 2.16
expression ratio Φ: calmodulin ([1]; AF178845 SEQ ID NO: 5): −1.95
expression ratio Φ: SCG10 ([1]; AY004290 SEQ ID NO: 4): −1.43
expression ratio Φ: selenoprotein P ([1]; D25221 SEQ ID NO: 11): 1.51
expression ratio Φ: plasma membrane calcium ATPase ([1]; J03753 SEQ ID NO: 12): −1.36
expression ratio Φ: GAP-43 ([1]; L21191 SEQ ID NO: 3): −1.88
expression ratio Φ: 2′,3′-cyclic nucleotide-3′ phosphodiesterase (CNPI) ([1]; M18630 SEQ ID NO: 2): 1.92
expression ratio Φ: calcineurin A ([1]; M29275 SEQ ID NO: 6): −1.43
expression ratio Φ: kinesin light chain C ([1]; M75148 SEQ ID NO: 8): −1.53
expression ratio Φ: hypoxanthine-guanine phosphoribosyltransferase ([1]; M86443 SEQ ID NO: 10): −1.37
expression ratio Φ: cysteine-rich protein ([1]; U09567 SEQ ID NO: 9): 1.49
expression ratio Φ: protein kinase C-binding protein NELL2 ([1]; U48245 SEQ ID NO: 7): −1.7
expression ratio Φ: nidogen (NID) ([2]; serum free, SEQ ID NO: 25): 1.7
expression ratio Φ: silver (SIL) ([2]; SEQ ID NO: 26): 1.6
expression ratio Φ: Homo sapiens clone 23798 and 23825 ([2]; SEQ ID NO: 27): 1.5
expression ratio Φ: LIM protein ([2]; SEQ ID NO: 28): 1.4
expression ratio Φ: carnitine palmitoyltransferase II ([2]; SEQ ID NO: 29): 1.4
expression ratio Φ: iduronate-2-sulfatase ([2]; SEQ ID NO: 30): 1.4
expression ratio Φ: dynamin 1 ([2]; SEQ ID NO: 31): 1.4
expression ratio Φ: myosin IB ([2]; SEQ ID NO: 32): 1.4
expression ratio Φ: EGF-like-domain ([2]; SEQ ID NO: 33): 1.4
expression ratio Φ: islet cell autoantigen 1 ([2]; SEQ ID NO: 34): −1.4
expression ratio Φ: regulator of G-protein signaling 5 ([2]; SEQ ID NO: 35): −1.4
expression ratio Φ: XPA binding protein 1 ([2]; SEQ ID NO: 36): −1.4
expression ratio Φ: P311 protein ([2]; SEQ ID NO: 37): −1.4
expression ratio Φ: SWI/SNF ([2]; SEQ ID NO: 38): −1.4
expression ratio Φ: ALL1 ([2]; SEQ ID NO: 39): −1.4
expression ratio Φ: RNA binding motif ([2]; SEQ ID NO: 40): −1.4
expression ratio Φ: SMAD1 ([2]; SEQ ID NO: 41): −1.4
expression ratio Φ: NADH dehydrogenase (ubiquinone) ([2]; SEQ ID NO: 42): −1.4
expression ratio Φ: calmodulin 2 ([2]; SEQ ID NO: 43): −1.4
expression ratio Φ: vimentin ([2]; SEQ ID NO: 44): −1.4
expression ratio Φ: GRB2-associated binding protein 1 ([2]; SEQ ID NO: 45): −1.5
expression ratio Φ: splicing factor 3b (subunit 3) ([2]; SEQ ID NO: 46): −1.5
expression ratio Φ: DKFZp547DO26_r1 (EST) ([2]; SEQ ID NO: 47): −1.5
expression ratio Φ: insulinoma-associated 1 (INSM1) ([2]; SEQ ID NO: 48): −1.6
expression ratio Φ: neuroendocrine secretory protein 55 ([2]; SEQ ID NO: 49): −1.6
expression ratio Φ: v-yes-1 ([2]; SEQ ID NO: 50): −1.6
expression ratio Φ: chromodomain helicase DNA binding ([2]; SEQ ID NO: 51): −1.6
expression ratio Φ: cholinergic receptor ([2]; SEQ ID NO: 52): −1.7
expression ratio Φ: dopmine β-hydroxylase (DBH) ([2]; SEQ ID NO: 53): -1.7
expression ratio Φ: dopa decarboxylase (DDC) ([2]; SEQ ID NO: 54): −2
expression ratio Φ: chromogranin B (CG-B) ([2]; SEQ ID NO: 55): −2.1
